According to patent US20260226049A1, “NITROGEN-CONTAINING HETEROCYCLIC COMPOUND, PREPARATION METHOD THEREFOR, AND USE THEREOF” (BIVISION PHARMACEUTICALS, INC, priority 2023, published 2026):

Key:
[1] = system: HT1080 cell line with high FAP expression; assay: Therapeutic experiment of ^177Lu-labeled compounds in tumor-bearing mice; type: in vivo, Balb/c Nude mice; conditions: for T/C / Tumor volume (mm^3) Group administration Day 14 / TGI^TV (%): 0.8 mCi; for T/C / Tumor volume (mm^3) Group administration Day 14: Day 14; for TGI^TV (%): Day 14, relative tumor inhibition rate; for Tumor volume (mm^3) Before administration: baseline, 0.8 mCi group
Method: Balb/c Nude tumor-bearing mice (supplier: Shanghai Alamo Pharmaceutical Technology Co., Ltd., HT1080 cell line with high FAP expression) aged approximately 6-8 weeks were randomly assigned to 13 experimental groups based on tumor volume, with 5 mice per group. Animal body weight and tumor size were measured, and administration was initiated on the grouping day starting with Group 1 (control group: normal saline). General health and appearance were observed daily after the start of the experiment. Animal body weight and tumor size were measured before each sample collection time point. Any abnormal observations detected during the entire study period were required to be recorded in the raw data.
The synthesized compounds were labeled with ^177Lu and subsequently utilized in the therapeutic assay on mouse tumor models. […] Furthermore, no significant changes in mouse body weight (FIG. 8) were observed throughout the experimental period.
• TGI^TV: Relative tumor inhibition rate (TGI^TV): TGI^TV (%)=[1−(Ti−T0)/(Vi−V0)]×100%; • (Ti: average tumor volume of the treatment group on day i of administration, TO: average tumor volume of the treatment group on day 0 of administration; Vi: average tumor volume of the solvent control group on day i of administration, V0: average tumor volume of the solvent control group on day 0 of administration) • T/C: T/C % is one of the most commonly used indicators for tumor response to treatment: T/C %=T/C*100%; • (T represents the average tumor volume of the treatment group at a specific time point; C represents the average tumor volume of the control group at a specific time point.)
The differences between the treatment groups (tumor volumes of the second, third, fourth, and fifth groups) and the control group (tumor volume of the first group) and between the tumor volumes of the first, third, fourth, and fifth groups and the tumor volume of the second group were analyzed using the two-way ANOVA Fisher's LSD test method. P-values less than 0.05 were considered statistically significant. Both statistical significance and biological significance were taken into account during the result analysis.

[2] = system: HT1080 cell line with high FAP expression; assay: ^68Ga labeling and animal imaging assay (PET/CT) in tumor-bearing mice; type: in vivo; parameters: Imaging data, Muscle / Imaging data, Bone / Imaging data, Bladder / Imaging data, Tumor / Imaging data, Intestine / Imaging data, Brain / Imaging data, Heart / Imaging data, Liver / Imaging data, Lung / Imaging data, Kidney: unit not given here; conditions: for uptake in the tumor at 3 hours: 3 hours after injection
Method: A. 1.0 mg of JHH7 precursor was weighed and dissolved in 0.1 M sodium acetate buffer to prepare a 1.0 mg/mL precursor solution.
B. The Ge/Ga generator was eluted stepwise with 5 mL of 0.1 M HCl, and the highest activity fraction (0.5 mL) was collected. 0.5 mL of metal-free 0.1 M sodium acetate buffer (pH=4.5) was added. In a 1.5 mL centrifuge tube as the reaction tube, a specific amount of precursor [1000 (molecular weight)/14.94 μL (precursor solution)/mCi (radionuclide)] was added, vortex-mixed for 10 s, and heated at 95° C., 800 rpm for 15 min.
C. The C18 Sep-Pak was activated with anhydrous ethanol, rinsed thoroughly with pure water, and the excess water was removed.
D. The solution after the reaction was passed through the C18 Sep-Pak, rinsed with pure water, and the excess water was removed. Subsequently, the C18 Sep-Pak was eluted with ethanol, collecting approximately 10 tubes with 3 drops per tube.
E. The final preparation should be a clear solution, prepared fresh for immediate use and limited to the same day.
1) The PET/CT was powered on according to the standard operating procedures, the scanning software was launched, and daily calibration was performed.
2) Animal anesthesia preparation was conducted, where tumor-bearing mice (supplied by Shanghai Alamo Pharmaceutical Technology Co., Ltd., HT1080 cell line with high FAP expression) were anesthetized using isoflurane.
3) After the loss of righting reflex in the tumor-bearing mice, the imaging agent was injected via the tail vein.
4) After drug administration, dynamic scanning at 1 hour and static scanning was performed at 3 hours were performed for 10 minutes.
5) During the process, animal body weight, injection dose, injection time, and residual dose were recorded according to the record sheet, and the time of measuring the injection dose and the time of measuring the residual dose were separately recorded.
6) The uptake in animal tumors, muscles, and other organs was analyzed using PMOD software.
^68Ga-labeled compounds JHH7 and JHH11 were imaged in tumor-bearing mice, and the results are shown in FIG. 5 and FIG. 6, with the imaging data shown in Tables 4 and 5.

[3] = tumor-bearing mice, intravenous injection

## N#C[C@@H]1CC(F)(F)CN1C(=O)CNC(=O)c1cccc2c1CCCC2C(=O)CCC(=O)NCCNC(=O)CCNC(=O)CN1CCN(CC(=O)O)CCN(CC(=O)O)CCN(CC(=O)O)CC1.[177Lu] (some centres unmarked) [^177Lu-JHH14]
[1]
  T/C: 28.93%
  Tumor volume (mm^3) Group administration Day 14: 755.85 ± 58.74 mm^3
  TGI^TV (%): 74.39%
  Tumor volume (mm^3) Before administration: 153.87 ± 16.47 mm^3

## N#C[C@@H]1CC(F)(F)CN1C(=O)CNC(=O)c1cccc2c1CCCN2C(=O)CCC(=O)NCCNC(=O)CCC(C(=O)O)N1CCN(CC(=O)O)CCN(CC(=O)O)CCN(CC(=O)O)CC1.[177Lu] (some centres unmarked) [^177Lu-JHH10]
[1]
  T/C: 19.38%
  Tumor volume (mm^3) Group administration Day 14: 506.26 ± 26.61 mm^3
  TGI^TV (%): 84.48%
  Tumor volume (mm^3) Before administration: 141.47 ± 12.20 mm^3

## N#C[C@@H]1CC(F)(F)CN1C(=O)CNC(=O)c1ccc2c(c1)CN(C(=O)CCC(=O)NCCNC(=O)CCC(C(=O)O)N1CCN(CC(=O)[O-])CCN(CC(=O)[O-])CCN(CC(=O)[O-])CC1)C2.[68Ga+3] (some centres unmarked) [^68Ga-JHH7]
[2]; 5 min
  Imaging data, Bladder: 3.02
  Imaging data, Bone: 0.17
  Imaging data, Brain: 0.90
  Imaging data, Heart: 4.61
  Imaging data, Intestine: 0.47
  Imaging data, Kidney: 6.73
  Imaging data, Liver: 1.71
  Imaging data, Lung: 1.78
  Imaging data, Muscle: 0.81
  Imaging data, Tumor: 0.91
[2]; 10 min
  Imaging data, Bladder: 49.75
  Imaging data, Bone: 0.28
  Imaging data, Brain: 0.82
  Imaging data, Heart: 2.19
  Imaging data, Intestine: 0.21
  Imaging data, Kidney: 5.59
  Imaging data, Liver: 0.88
  Imaging data, Lung: 0.94
  Imaging data, Muscle: 1.56
  Imaging data, Tumor: 2.47
[2]; 15 min
  Imaging data, Bladder: 84.10
  Imaging data, Bone: 0.30
  Imaging data, Brain: 0.59
  Imaging data, Heart: 1.43
  Imaging data, Intestine: 0.23
  Imaging data, Kidney: 3.87
  Imaging data, Liver: 0.50
  Imaging data, Lung: 0.79
  Imaging data, Muscle: 1.42
  Imaging data, Tumor: 3.36
[2]; 20 min
  Imaging data, Bladder: 109.69
  Imaging data, Bone: 0.18
  Imaging data, Brain: 0.55
  Imaging data, Heart: 1.01
  Imaging data, Intestine: 0.22
  Imaging data, Kidney: 3.35
  Imaging data, Liver: 0.38
  Imaging data, Lung: 0.45
  Imaging data, Muscle: 1.30
  Imaging data, Tumor: 3.88
[2]; 25 min
  Imaging data, Bladder: 145.55
  Imaging data, Bone: 0.17
  Imaging data, Brain: 0.48
  Imaging data, Heart: 0.94
  Imaging data, Intestine: 0.15
  Imaging data, Kidney: 2.74
  Imaging data, Liver: 0.23
  Imaging data, Lung: 0.28
  Imaging data, Muscle: 1.29
  Imaging data, Tumor: 4.70
[2]; 30 min
  Imaging data, Bladder: 157.22
  Imaging data, Bone: 0.10
  Imaging data, Brain: 0.46
  Imaging data, Heart: 0.72
  Imaging data, Intestine: 0.16
  Imaging data, Kidney: 2.88
  Imaging data, Liver: 0.25
  Imaging data, Lung: 0.37
  Imaging data, Muscle: 0.97
  Imaging data, Tumor: 5.00
[2]; 1.5 h
  Imaging data, Bladder: 89.40
  Imaging data, Bone: 0.53
  Imaging data, Brain: 0.23
  Imaging data, Heart: 0.45
  Imaging data, Intestine: 0.92
  Imaging data, Kidney: 0.71
  Imaging data, Liver: 0.52
  Imaging data, Lung: 0.54
  Imaging data, Muscle: 0.17
  Imaging data, Tumor: 6.40
[2]; 3 h
  Imaging data, Bladder: 7.50
  Imaging data, Bone: 0.14
  Imaging data, Brain: 0.12
  Imaging data, Heart: 0.21
  Imaging data, Intestine: 0.60
  Imaging data, Kidney: 0.55
  Imaging data, Liver: 0.43
  Imaging data, Lung: 0.55
  Imaging data, Muscle: 0.19
  Imaging data, Tumor: 5.20
[2]
  uptake in the tumor at 3 hours: a certain amount of uptake in the tumor was still observed
[2]; [3]
  time of peak uptake in the tumor after injection: 1.5 h

## N#C[C@@H]1CC(F)(F)CN1C(=O)CNC(=O)c1cc2c(s1)CCN(C(=O)CCC(=O)NCCNC(=O)CCNC(=O)CN1CCN(CC(=O)O)CCN(CC(=O)O)CCN(CC(=O)O)CC1)C2 [^68Ga-JHH11, metal not drawn]
[2]; 5 min
  Imaging data, Bladder: 4.24
  Imaging data, Bone: 0.92
  Imaging data, Brain: 0.98
  Imaging data, Heart: 8.61
  Imaging data, Intestine: 1.96
  Imaging data, Kidney: 13.43
  Imaging data, Liver: 5.43
  Imaging data, Lung: 3.12
  Imaging data, Muscle: 0.82
  Imaging data, Tumor: 1.06
[2]; 10 min
  Imaging data, Bladder: 17.03
  Imaging data, Bone: 1.68
  Imaging data, Brain: 0.66
  Imaging data, Heart: 4.33
  Imaging data, Intestine: 1.99
  Imaging data, Kidney: 15.81
  Imaging data, Liver: 3.56
  Imaging data, Lung: 2.08
  Imaging data, Muscle: 1.22
  Imaging data, Tumor: 2.47
[2]; 15 min
  Imaging data, Bladder: 27.04
  Imaging data, Bone: 1.17
  Imaging data, Brain: 0.59
  Imaging data, Heart: 3.22
  Imaging data, Intestine: 1.66
  Imaging data, Kidney: 20.15
  Imaging data, Liver: 2.78
  Imaging data, Lung: 1.97
  Imaging data, Muscle: 1.16
  Imaging data, Tumor: 3.26
[2]; 20 min
  Imaging data, Bladder: 45.38
  Imaging data, Bone: 1.08
  Imaging data, Brain: 0.55
  Imaging data, Heart: 2.72
  Imaging data, Intestine: 1.54
  Imaging data, Kidney: 13.33
  Imaging data, Liver: 2.44
  Imaging data, Lung: 1.88
  Imaging data, Muscle: 0.98
  Imaging data, Tumor: 3.87
[2]; 25 min
  Imaging data, Bladder: 60.89
  Imaging data, Bone: 1.22
  Imaging data, Brain: 0.45
  Imaging data, Heart: 2.29
  Imaging data, Intestine: 1.30
  Imaging data, Kidney: 8.42
  Imaging data, Liver: 2.16
  Imaging data, Lung: 1.47
  Imaging data, Muscle: 0.75
  Imaging data, Tumor: 4.30
[2]; 30 min
  Imaging data, Bladder: 73.70
  Imaging data, Bone: 0.82
  Imaging data, Brain: 0.41
  Imaging data, Heart: 1.98
  Imaging data, Intestine: 1.22
  Imaging data, Kidney: 5.54
  Imaging data, Liver: 2.05
  Imaging data, Lung: 1.48
  Imaging data, Muscle: 0.65
  Imaging data, Tumor: 4.60
[2]; 1.5 h
  Imaging data, Bladder: 265.50
  Imaging data, Bone: 0.50
  Imaging data, Brain: 0.03
  Imaging data, Heart: 0.20
  Imaging data, Intestine: 0.62
  Imaging data, Kidney: 1.00
  Imaging data, Liver: 0.78
  Imaging data, Lung: 0.58
  Imaging data, Muscle: 0.37
  Imaging data, Tumor: 4.40
[2]; 3 h
  Imaging data, Bladder: 4.50
  Imaging data, Bone: 0.02
  Imaging data, Brain: 0.04
  Imaging data, Heart: 0.12
  Imaging data, Intestine: 0.08
  Imaging data, Kidney: 0.46
  Imaging data, Liver: 0.82
  Imaging data, Lung: 0.25
  Imaging data, Muscle: 0.08
  Imaging data, Tumor: 2.30
[2]
  uptake in the tumor at 3 hours: tumor uptake was still observed
[2]; after injection
  metabolism and excretion from the mice: rapidly metabolized and excreted from the mice
[2]; [3]
  time of peak tumor uptake after injection: 30 min
